≈ marks a conversion by molar mass, not a printed value.
Assays:
M. tuberculosis = test: Mycobacteria susceptibility testing, Microplate Alamar Blue Assay, Mtu MIC; format: cell-based, Mycobacterium tuberculosis (Mtu); details: Mycobacterium tuberculosis
Eco-tolC = test: Bacterial susceptibility testing in liquid media, Eco-tolC MIC; details: Escherichia coli, read-out: Eco-tolC MIC
Description: (§1) Compounds may be tested for antimicrobial activity by susceptibility testing in liquid media. Compounds may be dissolved in dimethylsulfoxide and tested in 10 doubling dilutions in the susceptibility assays. The organisms used in the assay may be grown overnight on suitable agar media and then suspended in a liquid medium appropriate for the growth of the organism. The suspension can be a 0.5 McFarland and a further 1 in 10 dilution can be made into the same liquid medium to prepare the final organism suspension in 100 μL. Plates can be incubated under appropriate conditions at 37° C. for 24 hrs prior to reading.

Msm. GyrB = molecular target: T1, Msm. GyrB (Mycolicibacterium smegmatis, UniProt A0QNE0); test: Msmegmatis GyrB enzyme assay (ATPase, malachite green phosphate detection); format: biochemical; details: read-out: Msm_GyrB IC50
T1 construct: 15 nM Msm; GyrB, 650 μM ATP, and compound in dimethyl sulfoxide
How it was run: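 Phosphate released by GyrB was read with malachite green/ammonium molybdate after quenching, with stabilizer added 5 min later. Reactions contained 650 μM ATP, 15 nM enzyme and DMSO-dissolved compound in HEPES pH 7.7 buffer with 250 mM potassium glutamate, 200 mM KCl, 2 mM MgCl2, glycerol, DTT and Brij-35.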

Spn548 = test: Bacterial susceptibility testing in liquid media, Spn548 MIC; details: Streptococcus pneumoniae, 24 h, read-out: Spn548 Mean MIC
Description: as §1

T1 sequence (A0QNE0 whole entry): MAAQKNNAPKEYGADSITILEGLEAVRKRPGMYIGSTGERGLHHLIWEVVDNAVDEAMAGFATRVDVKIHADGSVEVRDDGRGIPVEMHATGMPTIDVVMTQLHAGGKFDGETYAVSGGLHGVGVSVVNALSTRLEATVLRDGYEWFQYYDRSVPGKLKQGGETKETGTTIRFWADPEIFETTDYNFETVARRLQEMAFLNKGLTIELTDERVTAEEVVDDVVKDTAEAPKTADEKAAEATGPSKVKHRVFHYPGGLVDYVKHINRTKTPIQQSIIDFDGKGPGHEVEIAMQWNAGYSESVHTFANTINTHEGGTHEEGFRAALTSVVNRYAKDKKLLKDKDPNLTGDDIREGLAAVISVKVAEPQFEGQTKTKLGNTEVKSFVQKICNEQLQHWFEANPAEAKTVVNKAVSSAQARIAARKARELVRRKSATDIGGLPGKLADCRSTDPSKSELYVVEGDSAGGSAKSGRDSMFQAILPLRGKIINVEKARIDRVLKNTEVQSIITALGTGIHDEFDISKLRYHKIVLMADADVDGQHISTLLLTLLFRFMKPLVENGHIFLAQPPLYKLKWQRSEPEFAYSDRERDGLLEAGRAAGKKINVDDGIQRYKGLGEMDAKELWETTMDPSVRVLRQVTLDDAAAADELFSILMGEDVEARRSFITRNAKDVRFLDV

Row | Structure (SMILES) | MIC (M. tuberculosis) | MIC (Eco-tolC) | IC50 (Msm. GyrB) | MIC (Spn548)
1 | CCNC(=O)Nc1nc2cc(-c3cccnc3OC)c(OCC3CCOCC3)nc2s1 [Example 61, 1-ethyl-3-[6-(2-methoxypyridin-3-yl)-5-(tetrahydro-2H-pyran-4-ylmethoxy)[1,3]thiazolo[5,4-b]pyridin-2-yl]urea] | > 4 µg/mL | 16 µg/mL (≈ 36.1 µM) | 4.74 nM | 0.25 µg/mL (≈ 0.564 µM)
2 | CCNC(=O)Nc1nc2cc(-c3c(C)noc3C)c(OCC3CCOCC3)nc2s1 [Example 62, 1-[6-(3,5-dimethylisoxazol-4-yl)-5-(tetrahydro-2H-pyran-4-ylmethoxy)[1,3]thiazolo[5,4-b]pyridin-2-yl]-3-ethylurea] | > 4 µg/mL | 64 µg/mL (≈ 148 µM) | 727 nM | 8 µg/mL (≈ 18.5 µM)
3 | CCNC(=O)Nc1nc2cc(-c3cncnc3)c(OC[C@H]3CCCO3)nc2s1 [Example 63, 1-ethyl-3-{6-pyrimidin-5-yl-5-[(2R)-tetrahydrofuran-2-ylmethoxy][1,3]thiazolo[5,4-b]pyridin-2-yl}urea] | 0.25 µg/mL (≈ 0.624 µM) | 1 µg/mL (≈ 2.5 µM) | 2.6 nM | 0.125 µg/mL (≈ 0.312 µM)
4 | CCNC(=O)Nc1nc2cc(-c3cncnc3)c(OC3CCOC3)nc2s1 (stereo not drawn) [Example 64, 1-ethyl-3-[6-pyrimidin-5-yl-5-(tetrahydrofuran-3-yloxy)[1,3]thiazolo[5,4-b]pyridin-2-yl]urea] | 0.125 µg/mL (≈ 0.323 µM) | 0.5 µg/mL (≈ 1.29 µM) | < 2.54 nM | 0.125 µg/mL (≈ 0.323 µM)
5 | CCNC(=O)Nc1nc2cc(-c3cncnc3)c(N[C@@H](C)C(=O)OCC)nc2s1 [Example 65, Ethyl N-{2-[(ethylcarbamoyl)amino]-6-pyrimidin-5-yl[1,3]thiazolo[5,4-b]pyridin-5-yl}-L-alaninate] | 0.125 µg/mL (≈ 0.301 µM) | 4 µg/mL (≈ 9.63 µM) | < 2.54 nM | 0.125 µg/mL (≈ 0.301 µM)
6 | CCNC(=O)Nc1nc2cc(-c3cnc(C#N)nc3)c(OCC3CCOC3)nc2s1 (stereo not drawn) [Example 66, 1-[6-(2-cyanopyrimidin-5-yl)-5-(tetrahydrofuran-3-ylmethoxy)[1,3]thiazolo[5,4-b]pyridin-2-yl]-3-ethylurea] | < 0.043 µg/mL | 0.5 µg/mL (≈ 1.18 µM) | < 2.54 nM | 0.125 µg/mL (≈ 0.294 µM)
7 | CCNC(=O)Nc1nc2cc(-c3cncnc3)c(N[C@@H](C)C(=O)NC)nc2s1 [Example 67, (2S)-2-[[2-(ethylcarbamoylamino)-6-pyrimidin-5-yl-thiazolo[4,5-e]pyridin-5-yl]amino]-N-methyl-propanamide] | 1.41 µg/mL (≈ 3.53 µM) | > 64 µg/mL | 15.9 nM | 2 µg/mL (≈ 4.99 µM)
8 | CCNC(=O)Nc1nc2cc(-c3ccc(C(F)(F)F)nc3)c(OCC3CCOC3)nc2s1 (stereo not drawn) [Example 70, 1-ethyl-3-{5-(tetrahydrofuran-3-ylmethoxy)-6-[6-(trifluoromethyl)pyridin-3-yl][1,3]thiazolo[5,4-b]pyridin-2-yl}urea] | 4.76 µg/mL (≈ 10.2 µM) | 0.25 µg/mL (≈ 0.535 µM) | 6.92 nM | 0.0625 µg/mL (≈ 0.134 µM)
9 | CCNC(=O)Nc1nc2cc(-c3ccc(F)nc3)c(OC3C=CCCC3)nc2s1 (stereo not drawn) [Example 72, 1-[5-(cyclohex-2-en-1-yloxy)-6-(6-fluoropyridin-3-yl)[1,3]thiazolo[5,4-b]pyridin-2-yl]-3-ethylurea] | 2 µg/mL (≈ 4.84 µM) | 0.25 µg/mL (≈ 0.605 µM) | 29.1 nM | 0.0625 µg/mL (≈ 0.151 µM)
